pIC50: −log10 of the molar value.
Columns and labels:
[1] = biological target: 5-lipoxygenase (5-LOX); settings: read-out: IC50 for the inhibition of 5-LOX; background, prior art; cited from earlier work
[2] = system: Freund's Complete Adjuvant induced paw edema; test: Freund's Complete Adjuvant induced arthritis model, inhibition of paw edema; assay type: in vivo; settings: 10 mg/kg body weight daily (positive control); FCA-induced Sprague Dawley rats; vs CMC control

Molecule | pIC50 [1] | Reduction in Paw edema [2] [%]
3-O-Acetyl-11-keto-β-Boswellic acid [AKBA] | 5.82 | 
C[C@]12C=CC(=O)C=C1CC[C@@H]1[C@@H]2[C@@H](O)C[C@@]2(C)[C@H]1CC[C@]2(O)C(=O)CO [Prednisolone] |  | 46

Source: patent US8551496B2, “Boswellia low polar gum resin extract and its synergistic compositions” (priority 2010, dated 2013)
